Source: PMC9696605 (Viruses, 2022)

How the values were obtained:
[1] = test system: NK cells from MS patients co-cultured with 721.221-ICP47-C1 cells; test: CD107a degranulation assay; format: cell-based, human; settings: 721.221-ICP47-C1 cells incubated with pU24-6A, Figure 5e; p < 0.01 (Fisher exact test)
hNedd4L-WW3* [2] = target: T1, hNedd4L-WW3* (Homo sapiens, UniProt Q96PU5); settings: NMR titrations; cited from earlier work
T1 construct: GST (N, cleaved yes); made in house; host or cells: E. coli BL21(DE3), pGEX-4T2

[3] = test system: KIR2DL2 positive NK cells vs 721.221-ICP47-C1 cells; test: CAM cytotoxicity assay, 721.221-ICP47-C1 targets; format: cell-based, human; settings: NK cells from MS patients, 4 h, 26 °C, Figure 5c, MBP, pU24-6B, U24-7 p < 0.001, pU24-6A p: NS (Fisher exact test)
hNedd4L-WW3* [4] = target: T1, hNedd4L-WW3*; settings: binding to hNedd4L-WW3* domain, quoted from earlier work; ref 30 (Sang et al.); cited from earlier work
[5] = cited from earlier work
actin = settings: cited from earlier work
Fyn-SH3 = Fyn-SH3 (Homo sapiens, UniProt P06241); settings: phosphorylated MBP; cited from earlier work
Sequence of Fyn-SH3 (P06241 with tags, fused parts or gaps): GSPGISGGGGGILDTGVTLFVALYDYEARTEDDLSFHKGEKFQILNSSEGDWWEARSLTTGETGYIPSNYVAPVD

T1 sequence (Q96PU5 with tags, fused parts or gaps): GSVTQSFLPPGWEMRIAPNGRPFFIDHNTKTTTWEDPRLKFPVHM

For `CSCC[C@H](N)C(=O)N[C@@H](CC(=O)O)C(=O)N1CCC[C@H]1C(=O)N1CCC[C@H]1C(=O)N[C@@H](CCCNC(=N)N)C(=O)N[C@H](C(=O)N1CCC[C@H]1C(=O)N1CCC[C@H]1C(=O)N1CCC[C@H]1C(=O)N[C@@H](CO)C(=O)N[C@@H](Cc1ccc(O)cc1)C(=O)N[C@@H](CO)C(=O)N[C@@H](CCC(=O)O)C(=O)N[C@H](C(=O)N[C@@H](CC(C)C)C(=O)O)C(C)C)[C@@H](C)OP(=O)(O)O` [pU24-6A], the “CD107a expression, KIR2DL2 positive vs negative NK cells” value [1] is given as “lower in KIR2DL2 positive NK cells in comparison with KIR2DL2 negative NK cells”, the “hNedd4L-WW3* residue perturbed” value (hNedd4L-WW3* [2]) is given as “R492 was found to be perturbed” and the “Killing of 721.221-ICP47-C1 cells by KIR2DL2 positive NK cells” value [3] is given as “maintained KIR2DL2 positive NK cells unresponsive towards 721.221-ICP47-C1 cells”. The “ΔG°” value (hNedd4L-WW3* [4]) was “(−3.49 ± 0.05)×10^1 kJ.mol^−1”, the “ΔH°” value (hNedd4L-WW3* [4]) was -14 ± 0.096 kcal/mol and the “ΔS°” value (hNedd4L-WW3* [4]) was -79.8 ± 0.9 J. mol^−1.K^−1.
For “MBP: myelin basic protein, a key component of the myelin sheath (IVTPRTPPPSQGKGR)”, the “Effect of MBP phosphorylation on lipid interaction” value [5] is given as “decreases the interaction between MBP and lipids”, the “Effect of MBP phosphorylation on actin polymerization and bundling” value (actin) is given as “decrease the ability of MBP to polymerize actin and to bundle actin filaments” and the “Killing of 721.221-ICP47-C1 cells by KIR2DL2 positive NK cells” value [3] is given as “induced 721.221-ICP47-C1 cell killing”. The “Effect of MBP phosphorylation on interaction with Fyn-SH3” value (Fyn-SH3) was “reduced interaction with Fyn-SH3”.
